Experimental data from ChEMBL document CHEMBL1150704, “Microbial hydroxylation of quadrone to 8a-hydroxyquadrone” (J Nat Prod, 1987).
Active and inactive are the calls of the source. The rule behind the calls is not given here.

Tested on: P388
Assay: Cytotoxicity against mouse P388 cells
Type: functional, cell-based

## CC1(C)C[C@@]23[C@@H]4CC(=O)[C@@H]2COC(=O)[C@]3(O)CC[C@H]41
  Activity: inactive
